# Test results published in patent US5212286A, “Atrial Natriuretic/vasodilator peptide compounds” (Scios Nova Inc., priority 1986, dated 1993).
# Positions of bridges follow the written chain, without caps; N, C: chain ends. Residues, ends and D or L forms follow the SMILES beside them.
# What was measured:
# [1] = system: ANVP receptor sites on cultured bovine vascular smooth muscle cells; assay: Displacement of specific [125I]rANVP(126-150) binding on cultured smooth muscle cells; conditions: for Ki: concentration of half-maximal displacement
# Source text: Specific and saturable binding is a necessary component of a hormone/receptor interaction.
# Various concentrations of the peptides described were examined for […]
# isolated rat kidney = assay: Renal function in the isolated perfused rat kidney
# [2] = system: precontracted rabbit or rat aortic preparations; assay: Vasorelaxant potency on precontracted aortic rings; conditions: for IC50: thoracic aortic segments precontracted with histamine or norepinephrine, read-out: IC50 (concentration producing half-maximal relaxation of the precontracted tissue); for vasorelaxant potency in words: precontracted vascular preparations
# Procedure: Synthetic ANVP compounds were compared to partially purified (gel filtration step) and purified (HPLC) native ANVP compounds (See FIGS. 3A-D) for their ability to relax histamine-contracted aortic rings. Rings were suspended in 10 ml aerated Kreb's buffer under 1.5 gm passive tension. Rings were precontracted with 5 X 10^-6 M histamine, washed and allowed to return to baseline tension, as described ([…]., supra). Increasing amounts of purified or synthetic ANVP compounds were then added in cumulative fashion. […] The relaxation effects of various ANVP compounds on precontracted rabbit or rat aortic preparations are shown in Table III. | Thoracic aortic segments were precontracted with histamine or | norepinephrine as previously described. Various doses of ANVP compounds | were then added and relaxation of the precontracted state was monitored. | Data are expressed as the concentration of each peptide required to | produce a halfmaximal relaxation of the precontracted tissue (IC50).
# intact rats = assay: Natriuretic and diuretic effects in intact rats (bolus injection); assay type: in vivo, rat
# Procedure: Synthetic ANVP compounds […] hANVP(127-151) were also found to be natriuretic in the intact rat. These compounds were administered as a bolus injection to Inactin anesthetized rats (100 mg/kg, average weight 399 g) which were maintained on a constant infusion of normal saline at 2.2 ml/hr. […] Data are expressed as mean±SE.
# anesthetized dogs = assay: Hemodynamic, renal and metabolic effects in anesthetized dogs; assay type: in vivo, dog
# Procedure: Renal and hemodynamic effects have also been measured in anesthetized dogs receiving a constant infusion of the compound rANVP(126-149) (1 μg/kg bolus, followed by 0.1 μg/kg/min for 1 hour). Effects were immediately detected on blood pressure, GFR and urine flow rate and electrolyte excretion and were sustained throughout the infusion. The "experimental" data presented for these parameters in […] are the average values obtained during the infusion. Mean arterial pressure (MAP) fell consistently by 10-15% while GFR rose by 25-35%, in association with a sustained diuresis and natriuresis (Table VIII). The parameters returned to control (i.e. pre-infusion) levels following termination of the infusion.
# [3] = dose 1 μg, experimental period E, mean of 3-8 experiments
# [4] = experimental peak value, 0.1 to 1.0 μg added to perfusate, mean ± SE of 4 kidneys
# [5] = experimental: average during infusion
# [6] = recovery, after termination of the infusion
structure (smiles),measurement,setting,value
CC[C@H](C)[C@@H]1NC(=O)[C@H](CCCNC(=N)N)NC(=O)[C@H](CC(N)=O)NC(=O)[C@H]([C@@H](C)CC)NC(=O)[C@H](CCCNC(=N)N)NC(=O)CNC(=O)CNC(=O)[C@H](Cc2ccccc2)NC(=O)[C@@H](NC(=O)[C@H](CO)NC(=O)[C@H](CO)NC(=O)[C@@H](N)CCCNC(=N)N)CSSC[C@@H](C(=O)N[C@@H](CC(N)=O)C(=O)N[C@@H](CO)C(=O)N[C@@H](Cc2ccccc2)C(=O)N[C@@H](CCCNC(=N)N)C(=O)N[C@@H](Cc2ccc(O)cc2)C(=O)O)NC(=O)CNC(=O)[C@H](CC(C)C)NC(=O)CNC(=O)[C@H](CO)NC(=O)[C@H](CCC(N)=O)NC(=O)[C@H](C)NC(=O)CNC1=O [[Asn^135]rANVP(126-150)] (H-RSSCFGGRINRIGAQSGLGCNSFRY-OH; disulfide 4-20),Ki,[1]; Series B smooth muscle cells,33.9 nM
"CC[C@H](C)[C@@H]1NC(=O)[C@H](CCCNC(=N)N)NC(=O)CNC(=O)CNC(=O)[C@H](Cc2ccccc2)NC(=O)[C@@H](NC(=O)[C@H](CO)NC(=O)[C@H](CO)NC(=O)[C@@H](N)CCCNC(=N)N)CSSC[C@@H](C(=O)N[C@@H](CC(N)=O)C(=O)N[C@@H](CO)C(=O)N[C@@H](Cc2ccccc2)C(=O)N[C@@H](CCCNC(=N)N)C(=O)N[C@@H](Cc2ccc(O)cc2)C(=O)O)NC(=O)CNC(=O)[C@H](CC(C)C)NC(=O)CNC(=O)[C@H](CO)NC(=O)[C@H](CCC(N)=O)NC(=O)[C@H](C)NC(=O)[C@@H](C)NC(=O)[C@H]([C@@H](C)CC)NC(=O)[C@H](CCCNC(=N)N)NC(=O)[C@H](CC(=O)O)NC1=O [[D-Ala^138]rANVP(126-150), H-Arg-Ser-Ser-Cys-Phe-Gly-Gly-Arg-Ile-Asp-Arg-Ile-[D-Ala]-Ala-Gln-Ser-Gly-Leu-Gly-Cys-Asn-Ser-Phe-Arg-Tyr-OH]",.V (urine flow rate),isolated rat kidney; [3],57.5 µL/min
same,GFR,isolated rat kidney; [3],0.54 mL/min
same,UNa.V (urinary sodium excretion rate),isolated rat kidney; [3],2.53 μEq/min
same,IC50,[2],3.1 nM
same,Ki,[1]; Series A smooth muscle cells,20 nM
"CC[C@H](C)[C@@H]1NC(=O)[C@H](CCCNC(=N)N)NC(=O)[C@H](CC(=O)O)NC(=O)[C@@H](CCSC)NC(=O)[C@H](CCCNC(=N)N)NC(=O)CNC(=O)CNC(=O)[C@H](Cc2ccccc2)NC(=O)[C@@H](NC(=O)[C@H](CO)NC(=O)[C@H](CO)NC(=O)[C@@H](N)CCCNC(=N)N)CSSC[C@@H](C(=O)N[C@@H](CC(N)=O)C(=O)N[C@@H](CO)C(=O)N[C@@H](Cc2ccccc2)C(=O)N[C@@H](CCCNC(=N)N)C(=O)N[C@@H](Cc2ccc(O)cc2)C(=O)O)NC(=O)CNC(=O)[C@H](CC(C)C)NC(=O)CNC(=O)[C@H](CO)NC(=O)[C@H](CCC(N)=O)NC(=O)[C@H](C)NC(=O)CNC1=O [[D-Met^135]hANVP(127-151), H-Arg-Ser-Ser-Cys-Phe-Gly-Arg-[D-Met]-Asp-Arg-Ile-Gly-Ala-Gln-Ser-Gly-Leu-Gly-Cys-Asn-Ser-Phe-Arg-Tyr-OH]",IC50,[2],7.6 nM
same,Ki,[1]; Series B smooth muscle cells,4.27 nM
CC[C@H](C)[C@@H]1NC(=O)[C@H](CCCNC(=N)N)NC(=O)[C@H](CC(=O)O)NC(=O)[C@H](CCSC)NC(=O)[C@H](CCCNC(=N)N)NC(=O)CNC(=O)CNC(=O)[C@H](Cc2ccccc2)NC(=O)[C@@H](NC(=O)[C@H](CO)NC(=O)[C@H](CO)NC(=O)[C@@H](N)CCCNC(=N)N)CSSC[C@@H](C(=O)O)NC(=O)CNC(=O)[C@H](CC(C)C)NC(=O)CNC(=O)[C@H](CO)NC(=O)[C@H](CCC(N)=O)NC(=O)[C@H](C)NC(=O)CNC1=O [hANVP(127-146)] (H-RSSCFGGRMDRIGAQSGLGC-OH; disulfide 4-20),vasorelaxant potency in words,[2],substantially diminished potency
same,IC50,[2],100 nM
same,Ki,[1]; Series B smooth muscle cells,1.82 nM
CC[C@H](C)[C@@H]1NC(=O)[C@H](CCCNC(=N)N)NC(=O)[C@H](CC(=O)O)NC(=O)[C@H](CCSC)NC(=O)[C@H](CCCNC(=N)N)NC(=O)CNC(=O)CNC(=O)[C@H](Cc2ccccc2)NC(=O)[C@@H](NC(=O)[C@H](CO)NC(=O)[C@H](CO)NC(=O)[C@@H](N)CCCNC(=N)N)CSSC[C@@H](C(=O)N[C@@H](CC(N)=O)C(=O)N[C@@H](CO)C(=O)N[C@@H](Cc2ccccc2)C(=O)O)NC(=O)CNC(=O)[C@H](CC(C)C)NC(=O)CNC(=O)[C@H](CO)NC(=O)[C@H](CCC(N)=O)NC(=O)[C@H](C)NC(=O)CNC1=O [hANVP(127-149)] (H-RSSCFGGRMDRIGAQSGLGCNSF-OH; disulfide 4-20),Ki,[1]; Series B smooth muscle cells,2.45 nM
CC[C@H](C)[C@@H]1NC(=O)[C@H](CCCNC(=N)N)NC(=O)[C@H](CC(=O)O)NC(=O)[C@H]([C@@H](C)CC)NC(=O)[C@H](CCCNC(=N)N)NC(=O)CNC(=O)CNC(=O)[C@H](Cc2ccccc2)NC(=O)[C@@H](NC(=O)[C@H](CO)NC(=O)[C@H](CO)NC(=O)[C@@H](N)CCCNC(=N)N)CSSC[C@@H](C(=O)N[C@@H](CC(N)=O)C(=O)N[C@@H](CO)C(N)=O)NC(=O)CNC(=O)[C@H](CC(C)C)NC(=O)CNC(=O)[C@H](CO)NC(=O)[C@H](CCC(N)=O)NC(=O)[C@H](C)NC(=O)CNC1=O [rANVP(126-147)-NH2] (H-RSSCFGGRIDRIGAQSGLGCNS-NH2; disulfide 4-20),IC50,[2],13 nM
same,Ki,[1]; Series B smooth muscle cells,1.83 nM
CC[C@H](C)[C@@H]1NC(=O)[C@H](CCCNC(=N)N)NC(=O)[C@H](CC(=O)O)NC(=O)[C@H]([C@@H](C)CC)NC(=O)[C@H](CCCNC(=N)N)NC(=O)CNC(=O)CNC(=O)[C@H](Cc2ccccc2)NC(=O)[C@@H](NC(=O)[C@H](CO)NC(=O)[C@H](CO)NC(=O)[C@@H](N)CCCNC(=N)N)CSSC[C@@H](C(=O)N[C@@H](CC(N)=O)C(=O)N[C@@H](CO)C(=O)N[C@@H](Cc2ccccc2)C(=O)O)NC(=O)CNC(=O)[C@H](CC(C)C)NC(=O)CNC(=O)[C@H](CO)NC(=O)[C@H](CCC(N)=O)NC(=O)[C@H](C)NC(=O)CNC1=O [rANVP(126-148)] (H-RSSCFGGRIDRIGAQSGLGCNSF-OH; disulfide 4-20),vasorelaxant potency in words,[2],substantially less potent than rANVP(126-150)
same,IC50,[2],7.5 nM
same,"binding activity in smooth muscle cells relative to rANVP(126-150), in words",[1],comparable binding activity to rANVP(126-150)
same,Ki,[1]; Series B smooth muscle cells,1.32 nM
same,Peak Na+ Excr.,intact rats; dose 455 pmol/kg,56.3 ± 8 µmol/min
same,Peak Urine Vol.,intact rats; dose 455 pmol/kg,6.8 ± 0.5 µL/min
CC[C@H](C)[C@@H]1NC(=O)[C@H](CCCNC(=N)N)NC(=O)[C@H](CC(=O)O)NC(=O)[C@H]([C@@H](C)CC)NC(=O)[C@H](CCCNC(=N)N)NC(=O)CNC(=O)CNC(=O)[C@H](Cc2ccccc2)NC(=O)[C@@H](NC(=O)[C@H](CO)NC(=O)[C@H](CO)NC(=O)[C@@H](N)CCCNC(=N)N)CSSC[C@@H](C(=O)N[C@@H](CC(N)=O)C(=O)N[C@@H](CO)C(=O)N[C@@H](Cc2ccccc2)C(=O)N[C@@H](CCCNC(=N)N)C(=O)O)NC(=O)CNC(=O)[C@H](CC(C)C)NC(=O)CNC(=O)[C@H](CO)NC(=O)[C@H](CCC(N)=O)NC(=O)[C@H](C)NC(=O)CNC1=O [rANVP(126-149)] (H-RSSCFGGRIDRIGAQSGLGCNSFR-OH; disulfide 4-20),.V (urine flow rate),isolated rat kidney; [4],97.6 ± 19.4 µL/min
same,FEK (fractional potassium excretion),isolated rat kidney; [4],52.1 ± 6.2%
same,FENa (fractional sodium excretion),isolated rat kidney; [4],6.6 ± 2.0%
same,FF (filtration fraction),isolated rat kidney; [4],0.021 ± 0.001
same,FLNa (filtered load of sodium),isolated rat kidney; [4],90.1 ± 5.2 μEq/min
same,GFR (glomerular filtration rate),isolated rat kidney; [4],0.63 ± 0.03 mL/min
same,RVR (renal vascular resistance),isolated rat kidney; [4],3.9 ± 0.3 mmHg/ml/min
same,TNa (tubular reabsorption of sodium),isolated rat kidney; [4],84.2 ± 4.8 μEq/min
same,UK .V (urinary potassium excretion rate),isolated rat kidney; [4],1.46 ± 0.16 μEq/min
same,UNa.V (urinary sodium excretion rate),isolated rat kidney; [4],6.01 ± 1.99 μEq/min
same,Ki,[1]; Series B smooth muscle cells,0.89 nM
same,"natriuretic in the intact rat, in words","intact rats; bolus injection, Inactin anesthetized rats",natriuretic
same,fall of mean arterial pressure (MAP),anesthetized dogs; during infusion,10-15%
same,rise of GFR,anesthetized dogs; during infusion,25-35%
same,.V (urine flow rate),anesthetized dogs; [5],1.06 ± 0.14 mL/min
same,FEH2O (fractional water excretion),anesthetized dogs; [5],3.4 ± 0.3%
same,FEK,anesthetized dogs; [5],34 ± 6%
same,FENa,anesthetized dogs; [5],4.1 ± 0.5%
same,GFR,anesthetized dogs; [5],32.3 ± 4.1 mL/min
same,PA (plasma aldosterone),anesthetized dogs; [5],5.4 ± 0.9 ng/100 ml
same,PRA (plasma renin activity),anesthetized dogs; [5],8.3 ± 1.8 ng/mL/h
same,UK .V,anesthetized dogs; [5],36 ± 6 μEq/min
same,UNa .V,anesthetized dogs; [5],187 ± 35 μEq/min
same,MAP (mean arterial pressure),"anesthetized dogs; experimental: average during infusion, 1 μg/kg bolus then 0.1 μg/kg/min for 1 hour",122 ± 4 mm Hg
same,.V (urine flow rate),anesthetized dogs; [6],0.37 ± 0.05 mL/min
same,FEH2O (fractional water excretion),anesthetized dogs; [6],1.5 ± 0.2%
same,FEK,anesthetized dogs; [6],21 ± 4%
same,FENa,anesthetized dogs; [6],1.9 ± 0.4%
same,GFR,anesthetized dogs; [6],25.4 ± 3.3 mL/min
same,MAP (mean arterial pressure),anesthetized dogs; [6],136 ± 4 mm Hg
same,PA (plasma aldosterone),anesthetized dogs; [6],7.0 ± 1.3 ng/100 ml
same,PRA (plasma renin activity),anesthetized dogs; [6],14 ± 2.5 ng/mL/h
same,UK .V,anesthetized dogs; [6],21 ± 4 μEq/min
same,UNa .V,anesthetized dogs; [6],68 ± 14 μEq/min
